This is an account of results in patent publication US20120295960A1, “TREATMENT REGIMEN FOR PARKINSON'S DISEASE” (priority 2011, published 2012).

Each structure is given as a SMILES string.

The subject of the data set is MPTP macaques. Kind of data set: Dyskinesia studies in drug-naive MPTP primates (video dyskinesia analysis, L-Dopa and apomorphine challenge). From the text: Neurotoxin MPTP was first administrated to 23 macaques until they developed severe Parkinsonism, these were then divided into experimental groups according to the following experiments: • 1. […] The animals were then observed from 2 up to 44 months. A subset of these primates were included for histology, microdialysis, electrophysiology, and metabolism studies. • 2. […] For the latter group, five MPTP macaques received daily oral L-Dopa for 12 weeks (MPTP-L-Dopa group, n=5). • 3. In the third experiment the potential of dyskinesia induction in MPTP macaques was studied by challenging them with a short acting D1/D2 dopaminergic agonist, apomorphine, then with an acute oral dose of L-Dopa. […] Animals were then challenged with L-Dopa and the number of dyskinesias was assessed with a specific software (The Observer®, Noldus)
All animals were assessed daily for their general clinical condition with special attention paid to the nutritional status. At the same time, the general neurological state of each macaque was assessed both pre- and post-lentiviral injections. To objectively quantify our neurological observations, animals were video-taped for 30 minutes before MPTP lesioning and at regular intervals following viral injections. The videos were then analyzed off-line by an examiner blinded to the experimental conditions. […]

Turning to `CN1CCc2cccc3c2[C@H]1Cc1ccc(O)c(O)c1-3` [apomorphine], the “locomotor activity after acute administration” value (MPTP-long term and MPTP-LacZ primates) is “levels similar to that of normal primates”. For the same compound, the “dyskinesia after acute administration” value (MPTP-long term and MPTP-Lenti-LacZ animals) was “debilitating choreiform and dystonic movements”.
